We go through 1 compound from patent US20250313960A1, “CHOLINE HYDROXIDE FOR SALT DI[…] RENEWABLE FEEDSTOCK PROCESS” (Ecolab USA Inc., priority 2024, published 2025).

The conditions of data set [1]: in water; all tested temperatures; compared with NH4Cl; FIG. 1, literature and experimental data.
Description: The solubility experiment was conducted by adding different amounts of salt to a set amount of water in glass vials. The amount of water used was such that the salt was mostly insoluble at room temperature. The vials were then heated up until all salts were dissolved. Temperature was recorded as each vial cooled. The temperature at which crystallization began was noted.
For data set [2] the following is noted: all temperatures; compared with NH4Cl; FIG. 2, literature values or calculated from solubility data.
Description: The effectiveness of the salt to dissolve in the aqueous phase was determined by its critical relative humidity (CRH) at various temperatures. CRH was defined by the ratio of the partial pressure of water in the solution (Pw) to the partial pressure of pure water (P*w) shown below.
The CRH of the salt at a specified temperature was calculated from thermodynamic parameters found in the equation:
Where CRH was the critical relative humidity, T was the temperature, ΔHs was the heat of solution at infinite dilution, R is the gas constant, and A, B, and C are solubility parameters obtained from solubility as a function of temperature of the salt.
Data not available in the literature was experimentally performed in triplicate by an enthalpy experiment and a solubility experiment.
The enthalpy experiment was conducted by recording changes in temperature as different amounts of the salt dissolved in a set volume of water located in a calorimeter. The enthalpy of solution was calculated for each of the different amount of salt used. The enthalpy data was then fitted and extrapolated to determine enthalpy of solution at an infinite dilution.
The CRH values at room temperature were found in literature or calculated from the solubility data following the below equations.

`C[N+](C)(C)CCO.[Cl-]` [ChCl, choline chloride]: the “solubility as a function of temperature (mol salt/mol water)” value in data set [1] is reported as “more soluble than NH4Cl”. Further, the “critical relative humidity (CRH)” value in data set [2] is reported as “lower”.
